Broadly, the melting point is the temperature, or range, at which the solid turns liquid. The compound `CCOC(=O)c1ccc(NC(=O)NCCN2CCN=C2c2ccccn2)cc1` registered a melting point of 95 to 97 °C.

In turn, `CC(=O)n1cc(Cl)c(-c2cccc(Cl)c2Cl)c1` had a melting point of 97 °C.

Regarding `Cc1ccc(C)n1-c1ccc(CC#N)cc1`, the melting point is 112 to 113 °C.

`COCCOCc1c(C=O)sc2c(=O)c(C(=O)NCc3ccc(Cl)cc3)cn(C)c12` yielded a melting point of 152 to 153 °C.

`CCc1cc(OCc2ccc(-c3ccccc3-c3nnn(C(c4ccccc4)(c4ccccc4)c4ccccc4)n3)cc2)c2c(n1)CCN(C)C2`: the melting point was in the range of 143 to 144 °C.

`CCn1c(C)nc(N2CCc3ccccc3CC2)c(C#N)c1=O` returned a melting point of 154 to 158 °C.

In turn, `Cn1c(CCN2CCN(Cc3ccccc3)CC2)nc2ccc3ccccc3c21` came in with a melting point of 144 to 146 °C.

In turn, `O=C(O)COc1cccc2c1CCc1sc(S(=O)(=O)C(c3ccc(F)cc3)c3ccc(F)cc3)nc1-2` registered a melting point of 186 to 188 °C.

For `COCc1nc(-c2cc(C(C)(C)C)c(O)c(C(C)(C)C)c2)cs1`, the melting point lay within 116 to 117 °C.

In the case of `Cc1c(C#N)sc2nc(CCc3ccccc3)nc(NC3CCC3)c12`, the melting point fell in the range of 153 to 155 °C.

Regarding `CC(C)c1nn(-c2ccc(C(F)(F)F)cn2)cc1CCCOc1cc(CCC(=O)O)n(C2CCCCC2)n1`, the melting point lay within 166 to 167 °C.

On to `COc1ccc2[nH]cc(C(C)N3CCCCC3=O)c2c1` (centres undefined), for which the melting point was 150 °C.

As for `Cc1cc(N=CN(C)C)c(C)cc1O`, the melting point was determined as 212 °C.

Compound `Cc1nc(N2CCCC(Cc3ccccc3)C2=O)sc1C(=O)NCc1ccccc1` (centres undefined) returned a melting point of 162 to 164 °C.

For the compound `Clc1ccc(-c2nc(COCc3ccccc3)ns2)nn1`, the melting point lay in the range of 109 to 110 °C.

In turn, `CCN(c1ccc(N2CCN(c3ccc(O)cc3)CC2)cc1)c1nccs1` yielded a melting point of 215 °C.

Compound `COC(=O)C[C@H](O)CC(=O)C=Cc1c(-c2ccc(F)cc2)c(-c2ccccc2)c(C(=O)Nc2ccccc2)n1C(C)C` had a melting point of 72 to 74 °C.

On to `COC(=O)c1c(-c2ccco2)ccnc1C(=O)c1nc(OC)cc(OC)n1`, for which the melting point lay within 135 to 140 °C.

Compound `O=C(Nc1ccc(C(F)(F)F)cc1)OC1CCCNC1` (centres undefined) registered a melting point of 150 to 151 °C.

Consider `CCOC(=O)C(NC(=O)CNC(N)=O)C(=O)OCC`, for which the melting point lay within 140 to 142 °C.

In turn, `CCOC(=O)C(C#N)=NOC(=O)OCc1ccccc1` had a melting point of 101 to 102 °C.

`O=C(CCc1ccccc1)N[C@H](Cc1ccc(C(F)(F)F)o1)[C@@H](O)c1ccc(F)cc1` (racemic) gave a melting point of 91 to 92 °C.

Turning to `CC(=O)NC1=NN(c2ccccc2)C(C)C1` (centres undefined), the melting point lay in the range of 144 to 146 °C.

For the compound `COCCNC(=O)c1cccc(NC(=O)Oc2ccccc2)c1`, the melting point is 142 to 150 °C.

Compound `CC(C)(C(=O)C(Oc1ccc(Cl)cc1Cl)n1cncn1)C(Cl)Cl` (centres undefined) yielded a melting point of 120 to 121 °C.

In turn, `C[C@H]([C@](O)(Cn1cncn1)c1ccc(F)cc1F)S(=O)(=O)N1CCN(c2ccc(F)cc2)CC1` yielded a melting point of 128 to 130 °C.

For the compound `CCOC(=O)c1c(Cl)nc2cc(F)c(F)cc2c1CCl`, the melting point worked out at 264 °C.

Turning to `Fc1ccc(Cn2c(N3CCC(Nc4nc5ccccc5n4Cc4ccccc4)CC3)nc3ccccc32)cc1`, the melting point came out at 164 °C.

With `CCC(C#N)(CC)c1nsc2ccc(-n3c(=O)cc(C(F)(F)F)n(C)c3=O)cc12`, the melting point was in the range of 76 to 78 °C.

In turn, `Cc1cccc(Cl)c1C(=O)N[C@@H](Cc1ccc(NC(=O)c2c(Cl)cccc2Cl)cc1)C(=O)O` gave a melting point of 212 to 215 °C.

Regarding `CCn1c(=O)c(-c2c(Cl)cccc2Cl)cc2cnc(Nc3ccc(OC)cc3)nc21`, the melting point is 213 to 215 °C.

`CC(NC(=O)c1cc(OCC(F)(F)F)ccc1OCC(F)(F)F)C1CCCCN1` (centres undefined) gave a melting point of 95 to 97 °C.

The compound `COC(=O)c1nn(Cc2cccc(O)c2)c2c1CCc1cc(OCc3cncnc3)ccc1-2` had a melting point of 218 to 222 °C.

As to `CNC(=O)C(Cc1ccc(OC)cc1)NC(=O)Nc1n[nH]c(=S)s1` (centres undefined), the melting point is 232 to 233 °C.

In turn, `COc1cccc(CNC(=O)c2cc3c(=O)n(CC#N)c(=O)n(C)c3s2)c1` gave a melting point of 159 to 163 °C.

`N#CN1CCC(c2n[nH]c3cc(F)ccc23)CC1` displayed a melting point of 143 to 145 °C.

Compound `CC(=O)Nc1ccc(C)c2c1C(=O)CCN2CC#N` displayed a melting point of 190 to 193 °C.

Compound `CN(C)CC(=O)N1c2ccccc2N(C)S(=O)(=O)c2ccc(C(F)(F)F)cc21` came in with a melting point of 156 to 157 °C.

For `O=S(=O)(O)c1ccc(Nc2ncnc3cc(Cl)ccc23)cc1`, the melting point is greater than 300 °C.

The compound `C[C@H]([C@](O)(Cn1cncn1)c1ccc(F)cc1F)S(N)(=O)=O` had a melting point of 195 to 197 °C.

Regarding `COc1ccc2nc(-c3cccc(F)c3)cc(OP(=O)(O)O)c2c1OP(=O)(O)O`, the melting point is 120 to 122 °C.

Compound `CCCCOC(=O)c1ccc(C(F)(F)F)cc1Cl` yielded a melting point of 90 °C.

Compound `Nc1ccc(Cc2ccccn2)cc1[N+](=O)[O-]` showed a melting point of 128 to 132 °C.

The compound `COc1ccc(CC(=O)NCc2ccccc2-c2ccccc2C(=O)NCCc2cccnc2)cc1` had a melting point of 116 °C.

In the case of `CN1CCN(C(=N)Nc2ccccc2-c2cccc(F)c2)CC1`, the melting point was in the range of 117 to 118 °C.

As for `O=C1CCC(N2Cc3c(OCc4nc5cc(CN6CCOCC6)ccc5s4)cccc3C2=O)C(=O)N1` (centres undefined), the melting point fell in the range of 228 to 230 °C.

For `COC(=O)CSc1ccc2ccc(Oc3c(Cl)cc(C(F)(F)F)cc3OC)cc2c1`, the melting point worked out at 115 °C.

Take `OC(CNc1nnc2n1CCCC2)COc1cccc(CN2CCCCC2)c1` (centres undefined): the melting point was 141 to 142 °C.

Regarding `NC(=O)C1=CCCNC1`, the melting point was 122 to 124 °C.

The compound `CCOC(=O)C(C)=C(C)NC(=O)Nc1cc(C(=O)OC(C)C)c(Cl)cc1F` had a melting point of 145 to 147 °C.

Take `CCCCCCN(CCCCCC)C(=O)COc1cc(C(=O)O)c([N+](=O)[O-])c(C(=O)O)c1`: the melting point lay in the range of 180 to 184 °C.

The compound `COc1ccc2[nH]c3c(c2c1)C[C@@]1(C)C(=O)N(CCn2ccnc2)C(=O)N1[C@@H]3c1cccc(O)c1` (racemic) gave a melting point of 321 to 324 °C.

As for `CCc1cc(CNc2nc3ccccc3o2)c(=S)[nH]c1C`, the melting point is 238 to 240 °C.

Take `CN1C(=S)N(c2ccc(C#N)c(C(F)(F)F)c2)C(=N)C12CCCC2`: the melting point is 165 to 166 °C.

On to `Cc1cc(N)ccc1N1CCC(N2CCOCC2)CC1`, for which the melting point lay in the range of 199 to 200 °C.

`COC(=O)Oc1ccc([N+](=O)[O-])cc1` came in with a melting point of 111 to 112 °C.

On to `CS(=O)(=O)N1CCC(Nc2ncc(C(=O)c3ccccc3)c(N)n2)CC1`, for which the melting point lay in the range of 249 to 250 °C.

`COC(=O)c1cccc(-c2nc(-c3ccc(OC)cc3)cs2)c1` yielded a melting point of 108 to 109 °C.

Take `CCC1(CC)Oc2ccc(C#N)cc2[C@@H](OC2=CC(=O)CC2)[C@@H]1O` (relative stereo): the melting point fell in the range of 166 to 170 °C.

In turn, `Cc1nc(N)c2nc(C)n(CCNS(C)(=O)=O)c2c1C` showed a melting point greater than 250 °C.

On to `Cc1nn2c(-c3cccnc3)ccnc2c1C#N`, for which the melting point fell in the range of 245 to 246 °C.

In the case of `Cc1ccnc(-c2ccoc2)c1OC1SCC(O)C(O)C1O` (centres undefined), the melting point turned out to be 95 °C.

Compound `CCn1cc(C(=O)O)c(=O)c2cc(F)c(N3CC(C)C(CN)C3)cc21` (centres undefined) returned a melting point of 245 to 248 °C.

For `Cc1cc(COc2nn(Cc3ccccc3)cc2C(=O)O)ccc1OCc1nc(-c2ccco2)oc1C`, the melting point was 176 to 177 °C.

For `CCc1nnc2c(N)nc3ccccc3n12`, the melting point lay in the range of 284 to 288 °C.

As for `Cc1cc2c(CCl)c(CO)c(Cl)nc2cc1Cl`, the melting point lay within 169 to 170 °C.

In the case of `OC1CSC(Oc2cccc3ocnc23)C(O)C1O` (centres undefined), the melting point came out at 172 °C.

Consider `CC(C)(C)SSc1nc2ccccc2s1`, for which the melting point lay in the range of 80 to 80.5 °C.

In turn, `C[C@@H](Nc1ncnc2cc(OCCOS(C)(=O)=O)c([N+](=O)[O-])cc12)c1ccccc1` returned a melting point of 128 to 134 °C.

Compound `CC(=O)N(C#N)Cc1ccccc1` showed a melting point of 42 °C.

Compound `Nc1cccc2c1C(=O)N([C@@H]1CCC(=O)NC1=O)C2=O` had a melting point of 308 to 310 °C.

On to `CCC(CC)(C(=O)N(C)C)n1cc(C)c(-c2ccccc2)n1`, for which the melting point is 135 to 136 °C.

Compound `N#Cc1cc2cccnc2nc1Cl` yielded a melting point of 273 °C.

`CC(C)(C)[Si](C)(C)OC1CCCc2cnc3cc(O)ccc3c21` (centres undefined) had a melting point of 248 to 250 °C.

On to `CC(C)n1c(=O)n(C)c(=O)c2cc(Cc3ccccc3)sc21`, for which the melting point lay within 91 to 93 °C.

Compound `CCCCCCCCCCNCC(O)CO` (centres undefined) had a melting point of 65 to 67 °C.

Consider `CCCCCNC(=O)n1nc(Oc2ncc(C(F)(F)F)cc2Cl)c(Cl)c1C`, for which the melting point was in the range of 76 to 78 °C.

For `CC(=O)NCC(C)(C)c1ccc(C(=O)Nc2cn3cc(Cl)ccc3n2)cc1`, the melting point is 220 to 222 °C.

With `C[C@]1(CN2CCN(c3ccc(C(=O)O)cc3)CC2)Cn2cc([N+](=O)[O-])nc2O1`, the melting point was 248 to 252 °C.

Consider `C#CCOC(=O)C=Cc1csc(Cl)c1Cl`, for which the melting point fell in the range of 84 to 86 °C.

For `C=C(C1=C(CCC(=O)OC)C(=O)CC1OC(C)=O)c1ccccc1` (centres undefined), the melting point was 78 to 79 °C.

As for `NCCN1CCC(Nc2nc3ccccc3n2Cc2cccs2)CC1`, the melting point was determined as 137 °C.

Take `O=C(Nc1ccc(C(F)(F)F)cc1)Nc1cccc(Oc2ccccc2)c1`: the melting point is 178 to 181 °C.

For the compound `COC(=O)CCc1ccc(OCc2cccc(/C=C/c3ccccc3)c2)cc1`, the melting point was in the range of 100 to 101 °C.

As to `COc1ccc(S(=O)(=O)N2C(=O)C(N)(c3ccccc3Cl)c3cc(Cl)ccc32)c([N+](=O)[O-])c1` (centres undefined), the melting point is 192 to 195 °C.

In turn, `COC(=O)C(=Cc1c[nH]c2cc(C)ccc12)[N+](=O)[O-]` displayed a melting point of 167 to 169 °C.

For `CCC(CC)Nc1c([N+](=O)[O-])cc(C)c(COC(C)=O)c1[N+](=O)[O-]`, the melting point lay in the range of 47 to 49 °C.

In the case of `CCOC(=O)C(=NOCC(=O)OCC(Cl)(Cl)Cl)c1csc(N)n1`, the melting point lay within 138 to 141 °C.

Compound `Cc1ncc([N+](=O)[O-])n1CCN1C(=O)CC(C)(C)CC1=O` gave a melting point of 153 to 154 °C.

(Values after a melting point compilation (Tetko et al.; mined from patent text by program, amines drawn as free bases though some values may be those of a salt).)
